Patent US6410558B1, “Fungicides for the control of take-all disease of plants” (Monsanto Technology LLC, priority 1991, dated 2002)

Tested on: Gaeumannomyces graminis var. tritici (Ggt)
Experiment: In vitro Assay: mycelial growth of Ggt on minimal media agar plates containing test compound
Format: cell-based
Conditions: Gaeumannomyces graminis, dark, 19-20° C., 4 to 5 days, diameter of mycelial growth; for inhibition at 0.1 ppm: 0.1 ppm in minimal media agar, read-out: In vitro (ppm) 0.1, Percent Inhibition; for inhibition at 1 ppm: 1 ppm in minimal media agar, read-out: In vitro (ppm) 1, Percent Inhibition; for inhibition at 10 ppm: 10 ppm in minimal media agar, read-out: In vitro (ppm) 10, Percent Inhibition
Method in brief: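 Compounds added from acetone stock into minimal (Czapek Dox) agar; plates inoculated with three 4-mm Ggt plugs, incubated in dark at 19-20° C for 4 to 5 days. Colony diameter measured; Percent Inhibition = [1-((treated mm −4)/(control mm −4))]×100.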

Structure (SMILES) | inhibition at 0.1 ppm [%] | inhibition at 1 ppm [%] | inhibition at 10 ppm [%]
C[Si](C)(C)c1cccc(I)c1C(=O)NC1CC1 [Example 209, N-Cyclopropyl-2-iodo-6-(trimethylsilyl)benzamide] | 28 | 90 | 100
CCNC(=O)c1cc([N+](=O)[O-])ccc1[Si](C)(C)C [Example 214, N-Ethyl-5-nitro-2-(trimethylsilyl)benzamide] | 3 | 6 | 77
CCNC(=O)c1c(-c2ccccc2)cccc1[Si](C)(C)C [Example 221, N-Ethyl-2-phenyl-6-(trimethylsilyl)benzamide] | 15 | 46 | 85
CCN(C(=O)c1cc(N(C)C)ccc1[Si](C)(C)C)C(OC)C(C)(C)C (stereo not drawn) [Example 222, 5-(Dimethylamino)-N-ethyl-N-(1-methoxy-2,2-dimethylpropyl)-2-(trimethylsilyl)benzamide] | < 0 | < 0 | 96
CCNC(=O)c1cc(C(F)(F)F)ccc1[Si](C)(C)C [Example 225, N-Ethyl-5-(trifluoromethyl)-2-(trimethylsilyl)benzamide] | 18 | 64 | 95
CCNC(=O)c1cc(N(C)C)ccc1[Si](C)(C)C [Example 226, 5-(Dimethylamino)-N-ethyl-2-(trimethylsilyl)benzamide] | 32 | 91 | 100
CCNC(=O)c1c([Si](C)(C)C)ccc(C#N)c1Cl [Example 229, 2-Chloro-3-cyano-N-ethyl-6-(trimethylsilyl)benzamide] | < 0 | 28 | 88
CCNC(=O)c1c([Si](C)(C)C)ccc(C)c1Cl [Example 230, 2-Chloro-N-ethyl-3-methyl-6-(trimethylsilyl)benzamide] | 88 | 96 | 96
CCNC(=O)c1c([Si](C)(C)C)ccc(SC)c1Cl [Example 231, 2-Chloro-N-ethyl-3-(methylthio)-6-(trimethylsilyl)benzamide] | < 0 | 76 | 96
CCNC(=O)c1c(Cl)ccc(N)c1[Si](C)(C)C [Example 233, 3-Amino-6-chloro-N-ethyl-2-(trimethylsilyl)benzamide] | 28 | 24 | 76
CCNC(=O)c1c(Cl)cc(Cl)cc1[Si](C)(C)C [Example 234, 2,4-Dichloro-N-ethyl-6-(trimethylsilyl)benzamide] | < 0 | 32 | 81
CCNC(=O)c1c(Cl)cc(C(C)(C)C)cc1[Si](C)(C)C [Example 235, 2-Chloro-4-(1,1-dimethylethyl)-N-ethyl-6-(trimethylsilyl)benzamide] | 3 | < 0 | 70
CCNC(=O)c1c(Br)ccc(OC)c1[Si](C)(C)C [Example 236, 6-Bromo-N-ethyl-3-methoxy-2-(trimethylsilyl)benzamide] | < 0 | 68 | 86
CCNC(=O)c1c(Cl)ccc(N(C)C)c1[Si](C)(C)C [Example 237, 6-Chloro-3-(dimethylamino)-N-ethyl-2-(trimethylsilyl)benzamide] | 44 | 93 | 96
CCNC(=O)c1c([Si](C)(C)C)ccc(S(C)(=O)=O)c1Cl [Example 238, 2-Chloro-N-ethyl-3-(methylsulfonyl)-6-(trimethylsilyl)benzamide] | < 0 | < 0 | 72
CCNC(=O)c1c([Si](C)(C)C)ccc(I)c1Cl [Example 239, 2-Chloro-N-ethyl-3-iodo-6-(trimethylsilyl)benzamide] | 22 | 57 | 87
CCNC(=O)c1cc(NC(=O)c2ccccc2)ccc1[Si](C)(C)C [Example 240, 5-(Benzoylamino)-N-ethyl-2-(trimethylsilyl)benzamide] | 26 | 22 | 65
CCNC(=O)c1c([Si](C)(C)C)ccc(/C=C/[N+](=O)[O-])c1Cl [Example 241, 2-Chloro-N-ethyl-3-(2-(E)-nitro-ethenyl)-6-(trimethylsilyl)benzamide] | 13 | 87 | 100
CCNC(=O)c1c([Si](C)(C)C)ccc(-c2ccccc2)c1Cl [Example 242, 2-Chloro-N-ethyl-3-phenyl-6-(trimethylsilyl)benzamide] | 27 | < 0 | 67

Structure (SMILES) | inhibition at 0.1 ppm [%] | inhibition at 1 ppm [%] | inhibition at 10 ppm [%]
CCNC(=O)c1c([Si](C)(C)C)ccc(C(C)=O)c1Cl [Example 243, 3-Acetyl-2-chloro-N-ethyl-6-(trimethylsilyl)benzamide] | 23 | 10 | 83
CCNC(=O)c1c([Si](C)(C)C)ccc(C(=O)OC)c1Cl [Example 244, 2-Chloro-3-[(ethylamino)carbonyl]-4-(trimethylsilyl)benzoic acid, methyl ester] | 10 | 20 | 53
CCNC(=O)c1cc(N=C=S)ccc1[Si](C)(C)C [Example 245, N-Ethyl-5-isothiocyanato-2-(trimethylsilyl)benzamide] | 50 | 100 | 100
CCNC(=O)c1cccc([N+](=O)[O-])c1[Si](C)(C)C [Example 246, N-Ethyl-3-nitro-2-(trimethylsilyl)benzamide] | < 0 | 2 | 61
CCNC(=O)c1ccccc1OC(C)(C)C [Example 247, N-Ethyl-2-(1,1-dimethylethoxy)benzamide] | < 0 | 16 | 59
CCNC(=O)c1sccc1[Si](C)(C)C [Example 248, N-Ethyl-3-(trimethylsilyl)-2-thiophenecarboxamide] | 10 | 10 | 100
CCN(CC)C(=O)c1c([Si](C)(C)C)coc1[Si](C)(C)C [Example 250, N,N-Diethyl-2,4-bis(trimethylsilyl)-3-furancarboxamide] | < 0 | < 0 | 41
CCNC(=O)c1oc([Si](C)(C)C)cc1[Si](C)(C)C [Example 251, N-Ethyl-3,5-bis(trimethylsilyl)-2-furancarboxamide] | 3 | 36 | 97
CCNC(=O)c1occc1[Si](C)(C)C [Example 252, N-Ethyl-3-(trimethylsilyl)-2-furancarboxamide] | 5 | 28 | 100
CCNC(=O)c1cccn1C[Si](C)(C)C [Example 253, N-Ethyl-1-[(trimethylsilyl)methyl]-1H-pyrrole-2-carboxamide] | < 0 | 14 | 62
CCN(CC)C(=O)c1sccc1[Si](C)(C)C [Example 255, N,N-Diethyl-3-(trimethylsilyl)-2-thiophenecarboxamide] | < 0 | < 0 | 73
CCNC(=O)c1sc(C)cc1[Si](C)(C)C [Example 256, N-Ethyl-5-methyl-3-(trimethylsilyl)-2-thiophenecarboxamide] | < 0 | < 0 | 100
CCNC(=O)c1sc(I)cc1[Si](C)(C)C [Example 257, N-Ethyl-5-iodo-3-(trimethylsilyl)-2-thiophenecarboxamide] | 3 | 23 | 100
CCNC(=O)c1sc(C=O)cc1[Si](C)(C)C [Example 258, N-Ethyl-5-formyl-3-(trimethylsilyl)-2-thiophenecarboxamide] | 19 | 19 | 42
CCNC(=O)c1sncc1[Si](C)(C)C [Example 259, N-Ethyl-4-(trimethylsilyl)-5-isothiazolecarboxamide] | 19 | 11 | 80
CCNC(=O)c1sc([S+](C)[O-])cc1[Si](C)(C)C (stereo not drawn) [Example 260, N-Ethyl-5-(methylsulfinyl)-3-(trimethylsilyl)-2-thiophenecarboxamide] | < 0 | < 0 | 77
CCNC(=O)c1sc(SC)cc1[Si](C)(C)C [Example 261, N-Ethyl-5-(methylthio)-3-(trimethylsilyl)-2-thiophenecarboxamide] | 14 | 25 | 78
C=CCNC(=O)c1sc(Cl)cc1[Si](C)(C)C [Example 262, 5-Chloro-N-(2-propenyl)-3-(trimethylsilyl)-2-thiophenecarboxamide] | 13 | 70 | 100
C[Si](C)(C)c1cc(Cl)sc1C(=O)NCCO [Example 263, 5-Chloro-N-(2-hydroxyethyl)-3-trimethylsilyl-2-thiophenecarboxamide] | 7 | < 0 | 50
